US9375005B2, “5-halogenopyrazole indanyl carboxamides” (BAYER CROPSCIENCE AG, priority 2012, dated 2016)
Marks after values point to notes of the source that are not given here.

What was measured:
Puccinia recondita = assay: In vivo preventive test on Puccinia recondita (brown rust on wheat); conditions: dose 500 ppm; wheat plants sprayed 24 h before contamination; grading 12 days after contamination
Procedure: Plants, used as controls, are treated with the mixture of acetone/tween/DMSO/water not containing the active material. After 24 hours, the plants are contaminated by spraying the leaves with an aqueous suspension of Puccinia recondita spores (100 000 spores per ml). […] Grading (% of efficacy) is carried out 12 days after the contamination, in comparison with the control plants.

[1] = Measurement of log P values by HPLC on reversed phase columns (EEC directive 79/831 Annex V.A8); format: physicochemical
Uromyces appendiculatus = assay: In vivo preventive test on Uromyces appendiculatus (bean rust); conditions: dose 500 ppm; bean plants sprayed 24 h before contamination; grading 11 days after contamination
Procedure: Bean plants (“Saxa” variety), sown in starter cups on a 50/50 peat soil-pozzolana substrate and grown at 24° C., are treated at the 2-leaf stage (9 cm height) by spraying with the active ingredient prepared as described above. Plants, used as controls, are treated with the mixture of acetone/tween/DMSO/water not containing the active material. After 24 hours, the plants are contaminated by spraying the leaves with an aqueous suspension of Uromyces appendiculatus spores (150 000 spores per ml). […] Grading (% of efficacy) is carried out 11 days after the contamination, in comparison with the control plants.

[2] = method [a]: LC-MS at pH 2.7, 0.1% formic acid in water / acetonitrile, gradient 10% to 95% acetonitrile
[3] = method [b]: LC-MS at pH 7.8, 0.001 molar ammonium hydrogen carbonate in water, gradient 10% to 95% acetonitrile

| logP [1, 2] | logP ([1]; method marked [a]) | SMILES | further results |
| --- | --- | --- | --- |
| 2.9[a] |  | CC(C)C1Cc2cccc(N)c2C1C (mixture of isomers) [III-a-24] |  |
| 1.76[a] |  | CCC1Cc2cccc(N)c2C1 (racemic) [III-a-16] |  |
| 2.64[a] |  | CC(C)CC1CCc2c(N)cccc21 (racemic) [III-a-22] |  |
| 1.93[a] |  | CC1CC2(CC2)c2cccc(N)c21 (racemic) [III-a-25] |  |
| 1.88[a] |  | CCC1(C)CCc2c(N)cccc21 (racemic) [III-a-26] |  |
| 2.78[a] |  | CCCON=C1CC(C)c2c(N)cccc21.Cl (racemic) [III-a-29] |  |
| 2.26[a] |  | CCON=C1CC(C)c2c(N)cccc21.Cl (racemic) [III-a-30] |  |
| 1.76[a] |  | CON=C1CC(C)c2c(N)cccc21.Cl (racemic) [III-a-31] |  |
| 2.4[a] |  | CC(C)(C)C1CCc2c(N)cccc21 (racemic) [III-a-35] |  |
| 2.47[a] |  | CCC1Cc2c(N)cccc2C1(C)C (racemic) [III-a-40] |  |
| 2.63[a] |  | CCC1(CC)Cc2c(N)cccc2C1C (racemic) [III-a-42] |  |
| 2.86[a] |  | CC1CC2(CCCC2)c2cccc(N)c21 (racemic) [III-a-43] |  |
| 5.14[a] |  | CCCON=C1CCc2c(Br)cccc21 (single isomer, unassigned) [III-b-7] |  |
| 4.49[a] |  | CCON=C1CCc2c(Br)cccc21 (single isomer, unassigned) [III-b-10] |  |
| 5.56[a] |  | CCCON=C1CCc2c(Br)cccc21 (single isomer, unassigned) [III-b-22] |  |
| 4.9[a] |  | CCON=C1CCc2c(Br)cccc21 (single isomer, unassigned) [III-b-23] |  |
| 2.73[a] |  | CC1CC(C(C)C)c2cccc(N)c21 (centres unmarked) [III-a-18] |  |
| 2.86[a] |  | CC1CC(C(C)C)c2cccc(N)c21 (centres unmarked) [III-a-19] |  |

| logP [1, 2] | logP ([1]; method marked [a]) | SMILES | further results |
| --- | --- | --- | --- |
| 3.85[a]; |  | CC1CC(C)(C)c2c(Br)ccc(N)c21 (centres unmarked) [III-a-20] | logP [1, 3]: 3.95[b] |
| 2.54[a] |  | Nc1cccc2c1CC(Cc1ccccc1)C2 (centres unmarked) [III-a-21] |  |
| 1.76[a] |  | CC1CC(C)c2c(N)cccc21 (centres unmarked) [III-a-23] |  |
| 2.94[a] |  | Nc1cccc2c1CC(C1CCCC1)C2 (centres unmarked) [III-a-28] |  |
| 2.08[a] |  | CON=C1c2cccc(N)c2CC1(C)C.Cl [III-a-32] |  |
| 1.44[a] |  | CC1Cc2c(N)cccc2C1C (centres unmarked) [III-a-33] |  |
| 2.28[a] |  | CC1c2c(N)cccc2C(C)(C)C1C (centres unmarked) [III-a-34] |  |
| 3.83[a] |  | CC1CC(CC(C)(C)C)c2cccc(N)c21 (centres unmarked) [III-a-36] |  |
| 3.42[a] |  | CC(C)CC1CC(C)c2c(N)cccc21 (centres unmarked) [III-a-39] |  |
| 3.35[a] |  | CC1CC2(CCCCC2)c2cccc(N)c21 (centres unmarked) [III-a-44] |  |
| 6.7[a] |  | CC(C)C1Cc2c(Br)cccc2C1(C)C (centres unmarked) [III-b-3] |  |
| 4.86[a] |  | Brc1cccc2c1CCC21CC1 [III-b-4] |  |
| 5.71[a] |  | CCCCON=C1CCc2c(Br)cccc21 [III-b-8] |  |
| 5.31[a] |  | CC1CC(C(C)C)c2cccc(Br)c21 (centres unmarked) [III-b-13] |  |
| 6.57[a] |  | CC(C)CC1CCc2c(Br)cccc21 (centres unmarked) [III-b-16] |  |
| 5.28[a] |  | CC1CC2(CC2)c2cccc(Br)c21 (centres unmarked) [III-b-20] |  |
| 4.23[a] |  | CON=C1CCc2c(Br)cccc21 [III-b-24] |  |
| 6.28[a] |  | CCC1Cc2c(Br)cccc2C1(C)C (centres unmarked) [III-b-29] |  |

Further lines, the molecule ahead of its results:

| SMILES | logP [1, 2] | logP ([1]; method marked [a]) | further results |
| --- | --- | --- | --- |
| CON=C1c2cccc(NC(=O)c3c(C(F)F)nn(C)c3Cl)c2CC1(C)C (mixture of isomers) [Example 59] |  |  | Eff. % (Puccinia recondita): 86% |
| CC1CC2(CC2(Cl)Cl)c2cccc(NC(=O)c3c(C(F)F)nn(C)c3F)c21 (centres unmarked) [Example 1] |  | 3.68[a] | Eff. % (Uromyces appendiculatus): 100% |
| CC1Cc2cccc(NC(=O)c3c(C(F)F)nn(C)c3Cl)c2C1 (centres unmarked) [Example 8] |  | 3.67[a] | Eff. % (Puccinia recondita): 94%; Eff. % (Uromyces appendiculatus): 100% |
| CC1Cc2c(NC(=O)c3c(C(F)F)nn(C)c3Br)cccc2C1(C)C (centres unmarked) [Example 13] |  | 4.16[a] | Eff. % (Puccinia recondita): 75%; Eff. % (Uromyces appendiculatus): 79% |
| CC1CC(C)(C)c2c(C3CC3)ccc(NC(=O)c3c(C(F)F)nn(C)c3Cl)c21 (centres unmarked) [Example 16] |  | 4.57[a]; | logP ([1]; method marked [b]): 4.57[b]; Eff. % (Puccinia recondita): 94%; Eff. % (Uromyces appendiculatus): 95% |
| Cc1ccc(NC(=O)c2c(C(F)F)nn(C)c2Cl)c2c1C(C)(C)CC2C (centres unmarked) [Example 18] |  | 4.27[a]; | logP ([1]; method marked [b]): 4.2[b]; Eff. % (Puccinia recondita): 78%; Eff. % (Uromyces appendiculatus): 76% |
| CON=C1CCc2c(NC(=O)c3c(C(F)F)nn(C)c3Cl)cccc21 [Example 25] |  | 2.82[a] |  |
| CCON=C1CCc2c(NC(=O)c3c(C(F)F)nn(C)c3F)cccc21 [Example 27] |  | 3.06[a] | Eff. % (Puccinia recondita): 72% |
| CON=C1CCc2c(NC(=O)c3c(C(F)F)nn(C)c3F)cccc21 [Example 29] |  | 2.59[a] | Eff. % (Puccinia recondita): 98% |
| CC1CC(C)(C)c2c(Br)ccc(NC(=O)c3c(C(F)F)nn(C)c3F)c21 (centres unmarked) [Example 38] |  | 4.45[a]; | logP ([1]; method marked [b]): 4.35[b]; Eff. % (Puccinia recondita): 71% |
| CC1CC(C)c2c(NC(=O)c3c(C(F)F)nn(C)c3Cl)cccc21 (centres unmarked) [Example 43] |  |  | Eff. % (Puccinia recondita): 98%; Eff. % (Uromyces appendiculatus): 100% |
| Cn1nc(C(F)F)c(C(=O)Nc2cccc3c2CC2CCCCC32)c1Cl (centres unmarked) [Example 54] |  | 4.54[a] | Eff. % (Puccinia recondita): 94%; Eff. % (Uromyces appendiculatus): 100% |
| CON=C1CC(C)c2c(NC(=O)c3c(C(F)F)nn(C)c3F)cccc21 (centres unmarked) [Example 58] |  | 2.75[a] | Eff. % (Puccinia recondita): 75%; Eff. % (Uromyces appendiculatus): 95% |
| CC1Cc2c(NC(=O)c3c(C(F)F)nn(C)c3Cl)cccc2C1C (centres unmarked) [Example 62] |  | 3.87[a] | Eff. % (Puccinia recondita): 94%; Eff. % (Uromyces appendiculatus): 100% |
| CC1c2c(NC(=O)c3c(C(F)F)nn(C)c3Br)cccc2C(C)(C)C1C (centres unmarked) [Example 65] |  | 4.23[a] | Eff. % (Puccinia recondita): 94%; Eff. % (Uromyces appendiculatus): 95% |
| Cn1nc(C(F)F)c(C(=O)Nc2cccc3c2CCC3C(C)(C)C)c1Cl (centres unmarked) [Example 67] |  | 4.64[a] | Eff. % (Puccinia recondita): 94%; Eff. % (Uromyces appendiculatus): 100% |
| CC(C)C1Cc2c(NC(=O)c3c(C(F)F)nn(C)c3Br)cccc2C1(C)C (centres unmarked) [Example 68] |  | 4.92[a] | Eff. % (Puccinia recondita): 98%; Eff. % (Uromyces appendiculatus): 100% |
| Cn1nc(C(F)F)c(C(=O)Nc2cccc3c2CC(C)(C)C3)c1Br [Example 71] |  | 3.87[a] | Eff. % (Puccinia recondita): 98%; Eff. % (Uromyces appendiculatus): 99% |
| CC1CC2(CC2)c2cccc(NC(=O)c3c(C(F)F)nn(C)c3Br)c21 (centres unmarked) [Example 76] |  | 3.83[a] | Eff. % (Puccinia recondita): 98%; Eff. % (Uromyces appendiculatus): 100% |
| CC1c2cccc(NC(=O)c3c(C(F)F)nn(C)c3Br)c2CC1(C)C (centres unmarked) [Example 81] |  | 4.16[a] | Eff. % (Puccinia recondita): 98%; Eff. % (Uromyces appendiculatus): 99% |
| CON=C1CC(C)c2c(NC(=O)c3c(C(F)F)nn(C)c3Cl)cccc21 (centres unmarked) [Example 88] |  | 2.98[a] | Eff. % (Puccinia recondita): 81%; Eff. % (Uromyces appendiculatus): 100% |
| CC(C)C1Cc2c(NC(=S)c3c(C(F)F)nn(C)c3Cl)cccc2C1(C)C (centres unmarked) [Example 94, 5-chloro-3-(difluoromethyl)-N-(2-isopropyl-1,1-dimethyl-2,3-dihydro-1H-inden-4-yl)-1-methyl-1H-pyrazole-4-carbothioamide] |  |  | logP ([1]; pH 2.7): 4.92[a]; Eff. % (Puccinia recondita): 89%; Eff. % (Uromyces appendiculatus): 99% |

| SMILES | logP [1, 2] | logP ([1]; method marked [a]) | further results |
| --- | --- | --- | --- |
| Cn1nc(C(F)F)c(C(=O)Nc2cccc3c2C(C)(C)CC3)c1F [Example 100] |  | 3.31[a] |  |
| CCC1(CC)CC(C)c2c(NC(=O)c3c(C(F)F)nn(C)c3Cl)cccc21 (centres unmarked) [Example 112] |  | 4.82[a] |  |
| CCC1(CC)CC(C)c2c(NC(=O)c3c(C(F)F)nn(C)c3F)cccc21 (centres unmarked) [Example 113] |  | 4.56[a] |  |
| CCC1(CC)CC(C)c2c(NC(=O)c3c(C(F)F)nn(C)c3Br)cccc21 (centres unmarked) [Example 114] |  | 4.82[a] |  |
| CCC1(C)CC(C)c2c(NC(=O)c3c(C(F)F)nn(C)c3Cl)cccc21 (centres unmarked) [Example 115] |  | 4.46[a] |  |
| CCC1(C)CC(C)c2c(NC(=O)c3c(C(F)F)nn(C)c3F)cccc21 (centres unmarked) [Example 116] |  | 4.16[a] |  |
| CCC1(C)CC(C)c2c(NC(=O)c3c(C(F)F)nn(C)c3Br)cccc21 (centres unmarked) [Example 117] |  | 4.44[a] |  |
| CC(C)C1Cc2cccc(N)c2C1 (centres unmarked) [III-a-2] | 2.25[a] |  |  |
| CC(C)C1Cc2c(N)cccc2C1(C)C (centres unmarked) [III-a-3] | 2.8[a] |  |  |
| Nc1cccc2c1CCC21CC1 [III-a-4] | 1.37[a] |  |  |
| CC1CC(C)(C)c2c(Cl)ccc(N)c21 (centres unmarked) [III-a-5] | 3.68[a] |  |  |
| CC1Cc2c(N)cccc2C1(C)C (centres unmarked) [III-a-6] | 1.95[a] |  |  |
| Nc1cccc2c1CC1(CCCC1)C2 [III-a-7] | 2.1[a] |  |  |
| CC1CC(C)(C)c2c(C3CC3)ccc(N)c21 (centres unmarked) [III-a-8] | 2.81[a] |  |  |
| Cc1ccc(N)c2c1C(C)(C)CC2C (centres unmarked) [III-a-9] | 2.16[a]; |  | logP [1, 3]: 3.52[b] |
| CC1CC(C)(C)c2c(I)ccc(N)c21 (centres unmarked) [III-a-10] | 4.1[a] |  |  |
| CC(C)C1Cc2c(N)cccc2C1C (centres unmarked) [III-a-11] | 2.34[a] |  |  |
| CCCON=C1CCc2c(N)cccc21.Cl [III-a-12] | 2.26[a] |  |  |
| CCCCON=C1CCc2c(N)cccc21.Cl [III-a-13] | 2.86[a] |  |  |
| CON=C1CCc2c(N)cccc21.Cl [III-a-14] | 1.26[a] |  |  |
| CCON=C1CCc2c(N)cccc21.Cl [III-a-15] | 1.75[a] |  |  |
